Test results reported in patent USRE40594E1, “Inhibitors of the bitter taste response” (Mount Sinai School of Medicine of New York University, priority 1998, dated 2008).
Counter-ions that a name gives are not always drawn. Like-named read-outs stand apart in the source and are kept apart here.

Tested on: bovine taste receptor cell membranes (taste receptors) with transducin
Assay: G protein activation assay (trypsin sensitivity): activation of transducin by bitter tastant plus taste membranes
Assay type: biochemical, Bovine (Bos primigenius)
Conditions: for inhibition of taste membrane-dependent activation of transducin by DEN (AMP analogues): DEN 5.0 mM, test compound 5.0 mM, FIG. 2; for inhibition of in vitro activation of transducin (G-protein) by taste membranes plus bitter compounds, summary statement: DEN, QUI and other bitter compounds, concentrations not given
Source text: Taste receptor is contacted with gustducin or transducin and tastant, in the presence or absence of test inhibitor, under conditions suitable for activation of the G-protein present. […] In specific non-limiting embodiments, a subunits of transducin or gustducin may be combined with βγ subunits prior to this step, as set forth above. To the reaction mixture comprising taste receptors and gustducin or transducin, test inhibitor and/or bitter tastant may be added, and the resulting solution incubated to permit interaction of the elements.
In preferred embodiments, activation is assessed by a trypsin digestion assay. […] In a specific, non-limiting example, to perform a trypsin digestion assay according to the invention, TPCK-treated trypsin (1:25 trypsin to total protein in the reaction mixture) may be added, and the digestion may be performed at room temperature for about 15 minutes and stopped by adding soybean trypsin inhibitor (6:1 mol/mol inhibitor to trypsin). […] The separated polypeptides may then be transferred by electro-blotter to a poly (vinylidene difluoride) membrane blocked by the addition of 5% BLOTTO [50 mM Tris-HCI, pH 7.4/100 mM NaCl/5% nonfat dry milk], (30 min). G-protein peptides may then be visualized by binding of antibody directed toward transducin or gustducin, followed, for example, by binding of a detectably labeled secondary antibody. If a horseradish peroxidase-labeled secondary antibody is used, binding may be visualized by developing with bicinchoninic acid staining reagents and exposure to x-ray film.
G Protein Activation Assays. Bovine (Bos primigenius) tongues were collected fresh from a local slaughterhouse and transported on ice to the laboratory. Circumvallate papillae were hand dissected, frozen in liquid nitrogen, and stored at −80° C. until use. […] The pelleted membranes were rinsed twice, resuspended in homogenization buffer lacking protease inhibitors, and further homogenized by 20 passages through a 25-gauge needle. Aliquots were either flash frozen or stored on ice until use. […] The separated polypeptides were transferred by electro-blotter to a poly (vinylidene difluoride) membrane, which was blocked by the addition of 5% BLOTTO [50 mM Tris-HCI, pH 7.4/100 mM NaCl/5% nonfat dry milk], (30 min), then transducin peptides were visualized by binding of transducin antiserum and horseradish peroxidase-labeled goat anti-rabbit secondary antibody, followed by developing with bicinchoninic acid staining reagents from Bio-Rad and exposure to x-ray film.
Chemicals. All bitter tastant and buffer chemicals were of the highest purity available and were purchased either from Sigma or Boehringer Mannheim, unless otherwise noted. […] The rabbit polyclonal antitransducin antibody was a kind gift of Mel Simon and John Watson (California Institute of Technology, Pasadena, Calif.).

Compound | inhibition of taste membrane-dependent activation of transducin by DEN (AMP analogues) | inhibition of in vitro activation of transducin (G-protein) by taste membranes plus bitter compounds, summary statement | activation of transducin by the tastant in the presence of taste membranes (tastant itself, no inhibitor) | other results
Nc1ncnc2c1ncn2[C@@H]1O[C@H](CO)[C@@H](OP(=O)(O)O)[C@H]1O [3′AMP, adenosine 3′ monophosphate] | potently inhibited | successfully inhibit |  | 
Nc1ncnc2c1ncn2[C@@H]1O[C@H](C(=O)O)[C@@H](O)[C@H]1O [ACA, adenosine 5′-carboxylate] | not inhibited |  |  | inhibition of taste membrane-dependent activation of transducin by DEN (AMP analogues) (listed as adenosine 5′-carboxylate): did not block
Cl.Nc1ncnc2nc[nH]c12 [ADE, adenine hydrochloride] |  |  |  | inhibition of taste membrane-dependent activation of transducin by DEN (AMP analogues) (hydrochloride): not inhibited; inhibition of taste membrane-dependent activation of transducin by DEN (AMP analogues) (listed as adenine, hydrochloride): did not block
Cl.Nc1ncnc2c1ncn2[C@@H]1O[C@H](CO)[C@@H](O)[C@H]1O [ADO, adenosine hydrochloride] |  |  |  | inhibition of taste membrane-dependent activation of transducin by DEN (AMP analogues) (hydrochloride): not inhibited; inhibition of taste membrane-dependent activation of transducin by DEN (AMP analogues) (listed as adenosine, hydrochloride): did not block
Nc1ncnc2c1ncn2[C@@H]1O[C@H](COP(=O)(O)OP(=O)(O)O)[C@@H](O)[C@H]1O [ADP, adenosine 5′ diphosphate] | potently inhibited | successfully inhibit |  | 
Nc1ncnc2c1ncn2[C@@H]1O[C@H](COS(=O)(=O)O)[C@@H](O)[C@H]1O [AMS, adenosine 5′-monosulfate] | not inhibited |  |  | inhibition of taste membrane-dependent activation of transducin by DEN (AMP analogues) (listed as adenosine 5′-monosulfate): did not block
Nc1ncnc2c1ncn2[C@@H]1O[C@H](COC(=O)CCC(=O)O)[C@@H](O)[C@H]1O [ASU, adenosine 5′-succinate] | inhibited | successfully inhibit |  | inhibition of taste membrane-dependent activation of transducin by DEN (AMP analogues) (listed as adenosinc 5′-succinate): potently inhibited
Nc1ncnc2c1ncn2[C@@H]1O[C@H](COP(=O)(O)OP(=O)(O)OP(=O)(O)O)[C@@H](O)[C@H]1O [ATP, adenosine 5′ triphosphate] | potently inhibited | successfully inhibit |  | 
Cn1c(=O)c2c(ncn2C)n(C)c1=O [CAF, caffeine, reference compound] | not inhibited |  |  | inhibition of taste membrane-dependent activation of transducin by DEN (AMP analogues) (listed as caffeine): did not block
Nc1ccn([C@@H]2O[C@H](COP(=O)(O)O)[C@@H](O)[C@H]2O)c(=O)n1 [CMP, 5′-cytidylic acid] | inhibited | successfully inhibit |  | inhibition of taste membrane-dependent activation of transducin by DEN (AMP analogues) (listed as 5′-Cytidylic acid): partially inhibited
CC[N+](CC)(CC(=O)Nc1c(C)cccc1C)Cc1ccccc1 [DEN, denatonium benzoate, reference compound] |  |  | activated transducin | 
C=C[C@H]1C[N@@]2CC[C@H]1C[C@H]2[C@H](O)c1ccnc2ccc(OC)cc12 [QUI, quinine hydrochloride, reference compound] |  |  | activated transducin | 
Cn1c(=O)c2[nH]cnc2n(C)c1=O [THE, theophylline, reference compound] | not inhibited |  |  | inhibition of taste membrane-dependent activation of transducin by DEN (AMP analogues) (listed as theophylline): did not block
Cc1cn([C@H]2C[C@H](O)[C@@H](COP(=O)(O)O)O2)c(=O)[nH]c1=O [TMP, thymidine 5′-monophosphate] | inhibited | successfully inhibit |  | inhibition of taste membrane-dependent activation of transducin by DEN (AMP analogues) (listed as thymidine 5′-monophosphate): potently inhibited
Nc1ncnc2c1ncn2[C@@H]1O[C@H](CO)[C@@H](O)[C@H]1OP(=O)(O)O [adenosine 2′-monophosphate] |  | successfully inhibit |  | inhibition of DEN/taste receptor activation of transducin (concentration not given, not shown in FIG. 2): potently inhibited
CN1[C@@H]2CC[C@H]1C[C@@H](OC(=O)C(CO)c1ccccc1)C2 (stereo partly shown) [atropine, atropine hydrochloride, reference compound] |  |  | activated transducin | 
O=C(O)/C=C/c1ccc(O)c(O)c1 [caffeic acid, reference compound] |  |  | activated transducin | 
C[C@@H]1O[C@@H](O[C@H]2[C@H](Oc3cc(O)c4c(c3)O[C@H](c3ccc(O)cc3)CC4=O)O[C@H](CO)[C@@H](O)[C@@H]2O)[C@H](O)[C@H](O)[C@H]1O [naringin, reference compound] |  |  | activated transducin | 
CCN(CC)CCCC(C)Nc1c2ccc(Cl)cc2nc2ccc(OC)cc12 (stereo not shown) [quinacrine, reference compound] |  |  | activated transducin | 
C1CCN2C[C@@H]3C[C@@H](CN4CCCC[C@@H]34)[C@H]2C1 [sparteine, reference compound] |  |  | activated transducin | 
nicotine hemisulfate [reference compound] |  |  |  | activation of transducin by the tastant in the presence of taste membranes: activated transducin
